Assay results from ChEMBL document CHEMBL1201861, “Genomics of Drug Sensitity in Cancer screening data, Wellcome Trust Sanger Institute”.
Values joined by “and” are separate entries in the source; they are usually repeats but may differ in a detail not shown here. Identical values can stand only once. Where a SMILES comes first, the peptide text is derived from it. The star is where a group is joined. Cbz = O=C(OCc1ccccc1)*

Assays:
Assay in all cases: cells
HDLM-2 = type: functional, cell-based, Homo sapiens;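 further: cell viability assay measuring suppression of HDLM-2 proliferation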
Description: SANGER: Inhibition of human HDLM-2 cell growth in a cell viability assay.

SW 954 = type: functional, cell-based, Homo sapiens;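 further: growth inhibition of SW954 human cancer cells, read out as cell viability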
Description: SANGER: Inhibition of human SW954 cell growth in a cell viability assay.

ETK-1 = type: functional, cell-based, Homo sapiens;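 further: growth inhibition of human ETK-1 cells, read out with a cell viability assay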
Description: SANGER: Inhibition of human ETK-1 cell growth in a cell viability assay.

ES8 = type: functional, cell-based, Homo sapiens;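 further: growth inhibition of human ES8 cells, read out with a cell viability assay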
Description: SANGER: Inhibition of human ES8 cell growth in a cell viability assay.

MZ1-PC = type: functional, cell-based, Homo sapiens;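 further: cell viability assay measuring growth inhibition of human MZ1-PC cells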
Description: SANGER: Inhibition of human MZ1-PC cell growth in a cell viability assay.

SF-268 = type: functional, cell-based, Homo sapiens;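 further: growth inhibition of SF-268 cells determined with a cell viability assay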
Description: SANGER: Inhibition of human SF268 cell growth in a cell viability assay.

KALS-1 = type: functional, cell-based, Homo sapiens; settings: read-out: IC50;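 further: growth inhibition of KALS-1 cells, determined with a cell viability assay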
Description: SANGER: Inhibition of human KALS-1 cell growth in a cell viability assay.

TK-10 = type: functional, cell-based, Homo sapiens;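 further: growth inhibition of TK-10 cells, read out in a cell viability assay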
Description: SANGER: Inhibition of human TK10 cell growth in a cell viability assay.

NCI-H1155 = type: functional, cell-based, Homo sapiens;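 further: cell growth inhibition measured by a viability assay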
Description: SANGER: Inhibition of human NCI-H1155 cell growth in a cell viability assay.

HT = type: functional, cell-based, Homo sapiens
Description: SANGER: Inhibition of human HT cell growth in a cell viability assay.

EW-13 = type: functional, cell-based, Homo sapiens; settings: read-out: IC50;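 further: growth inhibition of EW-13 cells, read out with a cell viability assay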
Description: SANGER: Inhibition of human EW-13 cell growth in a cell viability assay.

COLO-824 = type: functional, cell-based, Homo sapiens
Description: SANGER: Inhibition of human COLO-824 cell growth in a cell viability assay.

A498 = type: functional, cell-based, Homo sapiens;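 further: growth inhibition of human A498 cells, read out with a cell viability assay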
Description: SANGER: Inhibition of human A498 cell growth in a cell viability assay.

RKO = type: functional, cell-based, Homo sapiens;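 further: growth inhibition of human RKO cells, read out with a cell viability assay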
Description: SANGER: Inhibition of human RKO cell growth in a cell viability assay.

LS-123 = type: functional, cell-based, Homo sapiens
Description: SANGER: Inhibition of human LS-123 cell growth in a cell viability assay.

SW684 = type: functional, cell-based, Homo sapiens; settings: read-out: IC50;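 further: growth inhibition of human SW684 cells, measured by a cell viability assay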
Description: SANGER: Inhibition of human SW684 cell growth in a cell viability assay.

NCI-H1648 = type: functional, cell-based, Homo sapiens;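 further: cell viability assay measuring inhibition of NCI-H1648 cell growth, from the Sanger screening data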
Description: SANGER: Inhibition of human NCI-H1648 cell growth in a cell viability assay.

SK-MEL-1 = type: functional, cell-based, Homo sapiens;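 further: growth inhibition of human SK-MEL-1 cells, read out by a cell viability assay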
Description: SANGER: Inhibition of human SK-MEL-1 cell growth in a cell viability assay.

Ramos-2G6-4C10 = type: functional, cell-based, Homo sapiens;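 further: growth inhibition of the cell line, measured by a cell viability read-out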
Description: SANGER: Inhibition of human Ramos-2G6-4C10 cell growth in a cell viability assay.

BE-13 = type: functional, cell-based, Homo sapiens;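 further: growth inhibition of human BE-13 cells, measured with a cell viability assay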
Description: SANGER: Inhibition of human BE-13 cell growth in a cell viability assay.

ATN-1 = type: functional, cell-based, Homo sapiens;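 further: growth inhibition of human ATN-1 cells, read out with a cell viability assay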
Description: SANGER: Inhibition of human ATN-1 cell growth in a cell viability assay.

GB-1 = type: functional, cell-based, Homo sapiens;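 further: growth of GB-1 cells judged by a viability assay, IC50 marks the concentration inhibiting growth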
Description: SANGER: Inhibition of human GB-1 cell growth in a cell viability assay.

BB30-HNC = type: functional, cell-based, Homo sapiens;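 further: growth inhibition of the cultured cell line, read out by a cell viability assay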
Description: SANGER: Inhibition of human BB30-HNC cell growth in a cell viability assay.

Becker = type: functional, cell-based, Homo sapiens;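 further: growth inhibition of Becker cells, read out with a cell viability assay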
Description: SANGER: Inhibition of human Becker cell growth in a cell viability assay.

C2BBe1 = type: functional, cell-based, Homo sapiens;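 further: growth inhibition of C2BBe1 cells, read out through a viability assay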
Description: SANGER: Inhibition of human C2BBe1 cell growth in a cell viability assay.

ES1 = type: functional, cell-based, Homo sapiens;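 further: growth inhibition of ES1 cells, read out with a cell viability assay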
Description: SANGER: Inhibition of human ES1 cell growth in a cell viability assay.

ACN = type: functional, cell-based, Homo sapiens;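 further: growth inhibition of the human ACN cell line, read out via cell viability testing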
Description: SANGER: Inhibition of human ACN cell growth in a cell viability assay.

A388 = type: functional, cell-based; settings: Homo sapiens;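 further: growth inhibition of human A388 cells, read out with a cell viability assay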
Description: SANGER: Inhibition of human A388 cell growth in a cell viability assay.

TE-11 = type: functional, cell-based; settings: Homo sapiens;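 further: growth inhibition of human TE-11 cells, read out by a cell viability assay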
Description: SANGER: Inhibition of human TE-11 cell growth in a cell viability assay.

NCI-H82 = type: functional, cell-based, Homo sapiens;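 further: growth inhibition of NCI-H82 cells, measured with a cell viability readout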
Description: SANGER: Inhibition of human NCI-H82 cell growth in a cell viability assay.

CAS-1 = type: functional, cell-based, Homo sapiens;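 further: growth inhibition of CAS-1 cells, measured with a cell viability assay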
Description: SANGER: Inhibition of human CAS-1 cell growth in a cell viability assay.

COLO-684 = type: functional, cell-based, Homo sapiens
Description: SANGER: Inhibition of human COLO-684 cell growth in a cell viability assay.

MC116 = type: functional, cell-based, Homo sapiens;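 further: growth inhibition of MC116 cells, read out with a cell viability assay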
Description: SANGER: Inhibition of human MC116 cell growth in a cell viability assay.

A704 = type: functional, cell-based; settings: Homo sapiens;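 further: growth inhibition of human A704 cells, read out with a cell viability assay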
Description: SANGER: Inhibition of human A704 cell growth in a cell viability assay.

A101D = type: functional, cell-based, Homo sapiens;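 further: growth inhibition of the cell line, measured with a viability assay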
Description: SANGER: Inhibition of human A101D cell growth in a cell viability assay.

TE-12 = type: functional, cell-based, Homo sapiens;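 further: growth inhibition of TE-12 cells, read out by a cell viability assay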
Description: SANGER: Inhibition of human TE-12 cell growth in a cell viability assay.

SH-4 = type: functional, cell-based; settings: Homo sapiens;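 further: growth inhibition of SH-4 cells, read out with a cell viability assay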
Description: SANGER: Inhibition of human SH-4 cell growth in a cell viability assay.

LS-513 = type: functional, cell-based, Homo sapiens
Description: SANGER: Inhibition of human LS-513 cell growth in a cell viability assay.

JVM-3 = type: functional, cell-based, Homo sapiens;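 further: growth inhibition of human JVM-3 cells, read out with a cell viability assay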
Description: SANGER: Inhibition of human JVM-3 cell growth in a cell viability assay.

HCE-T = type: functional, cell-based, Homo sapiens;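 further: cell viability assay read-out, reporting inhibition of HCE-T cell growth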
Description: SANGER: Inhibition of human HCE-T cell growth in a cell viability assay.

D283 Med = type: functional, cell-based, Homo sapiens
Description: SANGER: Inhibition of human D-283MED cell growth in a cell viability assay.

NCI-H1395 = type: functional, cell-based, Homo sapiens;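 further: cell viability assay read-out quantifying reduced proliferation of human NCI-H1395 cells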
Description: SANGER: Inhibition of human NCI-H1395 cell growth in a cell viability assay.

SF-126 = type: functional, cell-based, Homo sapiens;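 further: growth inhibition of human SF126 cells, read out with a cell viability assay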
Description: SANGER: Inhibition of human SF126 cell growth in a cell viability assay.

DU-4475 = type: functional, cell-based, Homo sapiens
Description: SANGER: Inhibition of human DU-4475 cell growth in a cell viability assay.

EOL1 = type: functional, cell-based, Homo sapiens;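 further: growth inhibition of EoL-1 cells, read out by a cell viability assay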
Description: SANGER: Inhibition of human EoL-1-cell cell growth in a cell viability assay.

KU812 cell line = type: functional, cell-based, Homo sapiens;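 further: growth inhibition of KU812 cells, read out with a cell viability assay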
Description: SANGER: Inhibition of human KU812 cell growth in a cell viability assay.

ML-2 = type: functional, cell-based, Homo sapiens; settings: ml-2;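 further: growth inhibition of ML-2 cells, measured with a cell viability readout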
Description: SANGER: Inhibition of human ML-2 cell growth in a cell viability assay.

EW-3 = type: functional, cell-based, Homo sapiens; settings: ew-3;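 further: cell viability assay read-out, IC50 reflects inhibition of growth of the EW-3 cells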
Description: SANGER: Inhibition of human EW-3 cell growth in a cell viability assay.

SBC-1 = type: functional, cell-based, Homo sapiens;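 further: cell viability assay measuring growth inhibition of the SBC-1 cell line, IC50 being the concentration that halves growth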
Description: SANGER: Inhibition of human SBC-1 cell growth in a cell viability assay.

CS(=O)(=O)N1CCN(Cc2cc3nc(-c4cccc5[nH]ncc45)nc(N4CCOCC4)c3s2)CC1 [PICTILISIB] gave an IC50 (HDLM-2; Homo sapiens, HDLM-2) of 0.949 µM, an IC50 (SW 954; Homo sapiens, SW 954) greater than 4 µM and an IC50 (ETK-1; Homo sapiens, ETK-1) greater than 4 µM. For the same compound, the IC50 (ES8; Homo sapiens, ES8) was 0.811 µM, the IC50 (MZ1-PC; Homo sapiens, MZ1-PC) was greater than 4 µM and the IC50 (SF-268; Homo sapiens, SF-268) was greater than 4 µM. It also gave an IC50 (KALS-1; Homo sapiens, KALS-1) greater than 4 µM, an IC50 (TK-10; Homo sapiens, TK-10) of 1.67 µM and an IC50 (NCI-H1155; Homo sapiens, NCI-H1155) greater than 4 µM. It also gave an IC50 (HT; Homo sapiens, HT) of 1.13 µM, an IC50 (EW-13; Homo sapiens, EW-13) greater than 4 µM and an IC50 (COLO-824; Homo sapiens, COLO-824) greater than 4 µM. For the same compound, the IC50 (A498; Homo sapiens, A498) was 1.3 µM, the IC50 (RKO; Homo sapiens, RKO) was greater than 4 µM and the IC50 (LS-123; Homo sapiens, LS-123) was greater than 4 µM. It also gave an IC50 (SW684; Homo sapiens, SW684) greater than 4 µM, an IC50 (NCI-H1648; Homo sapiens, NCI-H1648) of 0.999 µM and an IC50 (SK-MEL-1; Homo sapiens, SK-MEL-1) of 1.31 µM. It also gave an IC50 (Ramos-2G6-4C10; Homo sapiens, Ramos-2G6-4C10) of 1.61 µM, an IC50 (BE-13; Homo sapiens, BE-13) greater than 4 µM and an IC50 (ATN-1; Homo sapiens, ATN-1) greater than 4 µM. It also gave an IC50 (GB-1; Homo sapiens, GB-1) greater than 4 µM, an IC50 (BB30-HNC; Homo sapiens, BB30-HNC) greater than 4 µM and an IC50 (Becker; Homo sapiens, Becker) of 3.17 µM. The IC50 (C2BBe1; Homo sapiens, C2BBe1) was greater than 4 µM, the IC50 (ES1; Homo sapiens, ES1) was 2.21 µM and the IC50 (ACN; Homo sapiens, ACN) was greater than 4 µM. For the same compound, the IC50 (A388) was greater than 4 µM, the IC50 (TE-11) was greater than 4 µM and the IC50 (NCI-H82; Homo sapiens, NCI-H82) was greater than 4 µM. The IC50 (CAS-1; Homo sapiens, CAS-1) was greater than 4 µM, the IC50 (COLO-684; Homo sapiens, COLO-684) was 0.523 µM and the IC50 (MC116; Homo sapiens, MC116) was greater than 4 µM. For the same compound, the IC50 (A704) was 1.51 µM, the IC50 (A101D; Homo sapiens, A101D) was 0.99 µM and the IC50 (TE-12; Homo sapiens, TE-12) was greater than 4 µM. It also gave an IC50 (SH-4) greater than 4 µM, an IC50 (LS-513; Homo sapiens, LS-513) greater than 4 µM and an IC50 (JVM-3; Homo sapiens, JVM-3) of 1.65 µM. It also gave an IC50 (HCE-T; Homo sapiens, HCE-T) greater than 4 µM, an IC50 (D283 Med; Homo sapiens, D283 Med) of 2.36 µM and an IC50 (NCI-H1395; Homo sapiens, NCI-H1395) greater than 4 µM. The IC50 (SF-126; Homo sapiens, SF-126) was 2.31 µM and the IC50 (DU-4475; Homo sapiens, DU-4475) was greater than 4 µM.

For CC(C)C[C@@H](C=O)NC(=O)[C@H](CC(C)C)NC(=O)[C@H](CC(C)C)NC(=O)OCc1ccccc1 [MG-132] (Cbz-Leu-Leu-Leu-aldehyde), the IC50 (HDLM-2; hdlm-2) was greater than 1 µM, the IC50 (SW 954; Homo sapiens, SW 954) was greater than 1 µM and the IC50 (SW 954; sw 954) was greater than 1 µM. For the same compound, the IC50 (ETK-1; Homo sapiens, ETK-1) was greater than 1 µM, the IC50 (ETK-1; etk-1) was greater than 1 µM and the IC50 (ES8; es8) was 0.248 µM and > 1 µM. For the same compound, the IC50 (MZ1-PC; Homo sapiens, MZ1-PC) was greater than 1 µM, the IC50 (MZ1-PC; mz1-pc) was greater than 1 µM and the IC50 (SF-268; sf-268) was 0.656 µM and > 1 µM. The IC50 (KALS-1; kals-1) was 0.466 µM and > 1 µM, the IC50 (TK-10; tk-10) was 0.254 µM and > 1 µM and the IC50 (NCI-H1155; nci-h1155) was greater than 1 µM. It also gave an IC50 (HT; ht) greater than 1 µM, an IC50 (EW-13; Homo sapiens, EW-13) greater than 1 µM and an IC50 (EW-13; ew-13) greater than 1 µM. For the same compound, the IC50 (COLO-824; colo-824) was greater than 1 µM, the IC50 (EOL1; Homo sapiens, EOL1) was greater than 1 µM and the IC50 (EOL1; eol1) was greater than 1 µM. For the same compound, the IC50 (A498; Homo sapiens, A498) was greater than 1 µM, the IC50 (A498; a498) was greater than 1 µM and the IC50 (RKO; rko) was > 1 µM and 0.932 µM. It also gave an IC50 (LS-123; ls-123) greater than 1 µM, an IC50 (SW684; sw684) greater than 1 µM and an IC50 (NCI-H1648; Homo sapiens, NCI-H1648) greater than 1 µM. The IC50 (NCI-H1648; nci-h1648) was greater than 1 µM, the IC50 (SK-MEL-1; Homo sapiens, SK-MEL-1) was greater than 1 µM and the IC50 (SK-MEL-1; sk-mel-1) was greater than 1 µM. The IC50 (Ramos-2G6-4C10; Homo sapiens, Ramos-2G6-4C10) was greater than 1 µM, the IC50 (Ramos-2G6-4C10; ramos-2g6-4c10) was greater than 1 µM and the IC50 (BE-13; be-13) was > 1 µM and 0.562 µM. The IC50 (ATN-1; atn-1) was greater than 1 µM, the IC50 (GB-1; gb-1) was 0.721 µM and > 1 µM and the IC50 (BB30-HNC; bb30-hnc) was greater than 1 µM. For the same compound, the IC50 (Becker; becker) was 0.796 µM and > 1 µM, the IC50 (C2BBe1; c2bbe1) was 0.279 µM and > 1 µM and the IC50 (ES1; es1) was greater than 1 µM. For the same compound, the IC50 (ACN; acn) was 0.226 µM and > 1 µM, the IC50 (KU812 cell line; Homo sapiens, KU812) was greater than 1 µM and the IC50 (KU812 cell line; ku812) was greater than 1 µM. The IC50 (TE-11) was greater than 1 µM, the IC50 (NCI-H82; nci-h82) was greater than 1 µM and the IC50 (CAS-1; cas-1) was 0.155 µM and > 1 µM. The IC50 (COLO-684; colo-684) was 0.907 µM and > 1 µM, the IC50 (MC116; mc116) was greater than 1 µM and the IC50 (ML-2) was 0.118 µM and 0.473 µM. For the same compound, the IC50 (A704) was 0.487 µM, the IC50 (A101D; a101d) was 0.0328 µM and 0.301 µM and the IC50 (TE-12; Homo sapiens, TE-12) was greater than 1 µM. For the same compound, the IC50 (TE-12; te-12) was greater than 1 µM, the IC50 (EW-3) was greater than 1 µM and the IC50 (LS-513; ls-513) was 0.668 µM and > 1 µM. It also gave an IC50 (JVM-3; jvm-3) greater than 1 µM, an IC50 (HCE-T; hce-t) greater than 1 µM and an IC50 (D283 Med; d283 med) greater than 1 µM. The IC50 (SBC-1; Homo sapiens, SBC-1) was greater than 1 µM, the IC50 (SBC-1; sbc-1) was greater than 1 µM and the IC50 (NCI-H1395; Homo sapiens, NCI-H1395) was greater than 1 µM. For the same compound, the IC50 (NCI-H1395; nci-h1395) was greater than 1 µM, the IC50 (SF-126; sf-126) was 0.99 µM and > 1 µM and the IC50 (DU-4475; du-4475) was 0.197 µM and > 1 µM.

Compound CO[C@@H]1[C@H](N(C)C(=O)c2ccccc2)C[C@H]2O[C@]1(C)n1c3ccccc3c3c4c(c5c6ccccc6n2c5c31)C(=O)NC4 [MIDOSTAURIN] has an IC50 (ETK-1; Homo sapiens, ETK-1) of 0.377 µM, an IC50 (BE-13; Homo sapiens, BE-13) greater than 0.512 µM and an IC50 (BB30-HNC; Homo sapiens, BB30-HNC) of 0.324 µM. For the same compound, the IC50 (CAS-1; Homo sapiens, CAS-1) was 0.182 µM and the IC50 (COLO-684; Homo sapiens, COLO-684) was greater than 0.512 µM.
